Experiment: xn = mol fraction of the nth substance listed

Fc1c(F)c(F)c(F)c(F)c1F + Cc1cccc(C)n1
viscosity [mPa·s], 101.33 kPa
Settings | x2 = 0.091 | x2 = 0.165 | x2 = 0.229 | x2 = 0.283 | x2 = 0.497 | x2 = 0.5 | x2 = 0.712 | x2 = 0.767 | x2 = 0.832 | x2 = 0.908
293.15 K | – | 0.9415 | 0.9457 | – | – | 0.9333 | 0.8943 | 0.8824 | 0.8673 | 0.8549
298.15 K | – | 0.869 | 0.8709 | 0.8665 | 0.8598 | 0.8584 | 0.8268 | 0.8175 | 0.8052 | 0.7928
308.15 K | – | 0.7494 | 0.7485 | 0.7439 | 0.7372 | 0.736 | 0.7137 | 0.7072 | 0.6997 | 0.6916
318.15 K | 0.6629 | 0.6586 | 0.6562 | – | 0.6401 | 0.6401 | 0.6252 | 0.6209 | 0.616 | 0.611

C1=Cc2cccc3cccc1c23 + Cc1ccccc1
viscosity [mPa·s], 101 kPa
Settings | 303.15 K | 308.15 K | 313.15 K | 318.15 K
x1 = 0.1292 | 0.6888 | 0.6467 | 0.608 | 0.573
x1 = 0.195 | 0.794 | 0.74 | 0.6961 | 0.6516

C=C1CCC2CC1C2(C)C (configuration not stated) + Cc1ccccc1
viscosity [mPa·s], 101 kPa
Settings | x2 = 0.2689 | x2 = 0.3867 | x2 = 0.4951 | x2 = 0.5953 | x2 = 0.6881 | x2 = 0.7744 | x2 = 0.8547 | x2 = 0.9298
303.15 K | 1.188 | 0.995 | 0.86 | 0.754 | 0.684 | 0.633 | 0.595 | 0.564
308.5 K | 1.112 | 0.93 | 0.803 | 0.703 | 0.642 | 0.595 | 0.565 | 0.536
313.15 K | 1.027 | 0.863 | 0.745 | 0.654 | 0.598 | 0.56 | 0.534 | 0.505

Cc1cccc(N)c1 + Cc1ccccc1
303.15 K, 101.33 kPa
Settings | viscosity [mPa·s]
x1 = 0.168 | 0.61
x1 = 0.422 | 0.8
x1 = 0.619 | 1.05
x1 = 0.801 | 1.53

CCCC[N+](CCCC)(CCCC)CCCC.[Br-] + ClC(Cl)(Cl)Cl
303.15 K, 101 kPa
Settings | viscosity [mPa·s]
x1 = 0.0245 | 2.46
x1 = 0.026 | 2.59
x1 = 0.0348 | 3.22
x1 = 0.0608 | 7.11
x1 = 0.0946 | 14.33
x1 = 0.1162 | 24.57
x1 = 0.1446 | 36.49
x1 = 0.1666 | 56.17
x1 = 0.1764 | 63.7
x1 = 0.2004 | 101.7
x1 = 0.2171 | 141.8
x1 = 0.2631 | 307.1
x1 = 0.3449 | 1248

C1=Cc2cccc3cccc1c23 + ClC(Cl)Cl
viscosity [mPa·s], 101 kPa
Settings | 298.15 K | 303.15 K | 308.15 K | 313.15 K
x1 = 0.1595 | 0.892 | 0.8295 | 0.7764 | 0.7199
x1 = 0.2105 | 0.9695 | 0.907 | 0.8473 | 0.7968

CCCC[N+](CCCC)(CCCC)CCCC.[Br-] + NCCO
101 kPa, x1 = 0.143
Settings | viscosity [mPa·s]
298.15 K | 53.49
303.15 K | 40.7
308.15 K | 31.66
313.15 K | 25.12
318.15 K | 20.28
323.15 K | 16.63

NCCN1CCNCC1 + NCCO.O=CO
viscosity [mPa·s], 100 kPa
Settings | x2 = 0.2317 | x2 = 0.3408 | x2 = 0.4457 | x2 = 0.5468 | x2 = 0.6441 | x2 = 0.7379 | x2 = 0.8283
298.15 K | 130.1 | 250.1 | 379.1 | 466.9 | 462.4 | 357.8 | 264.9
303.15 K | 80.27 | 188.7 | 266.6 | 322.5 | 323.3 | 259 | 196.6
308.15 K | – | 136.2 | 191.3 | 230.5 | 234.9 | 192 | 149.1
313.15 K | – | 102.4 | 141.7 | 170 | 173.6 | 146.6 | 115.8
318.15 K | – | 78.62 | 106.8 | 127.9 | 131.8 | 113.7 | 91.74
323.15 K | – | 61.55 | 83.63 | 98.95 | 102.1 | 89.85 | 74.36

CCCCO + O
Settings | viscosity [mPa·s]
293.15 K, 100 kPa, x1 = 0.02 | 1.378
293.15 K, 100 kPa, x1 = 0.5485 | 3.301
293.15 K, 101 kPa, x1 = 0.005 | 1.077
293.15 K, 101 kPa, x1 = 0.01 | 1.155
293.15 K, 101 kPa, x1 = 0.015 | 1.232
298.15 K, 101 kPa, x1 = 0.005 | 0.947
298.15 K, 101 kPa, x1 = 0.01 | 1.003
298.15 K, 101 kPa, x1 = 0.015 | 1.058
298.15 K, 101 kPa, x1 = 0.69 | 2.598
298.15 K, 101 kPa, x2 = 0.0398 | 2.622
298.15 K, 101 kPa, x2 = 0.0784 | 2.618
298.15 K, 101 kPa, x2 = 0.1202 | 2.619
298.15 K, 101 kPa, x2 = 0.1424 | 2.62
298.15 K, 101 kPa, x2 = 0.163 | 2.626
298.15 K, 101 kPa, x2 = 0.1955 | 2.634
298.15 K, 101 kPa, x2 = 0.2265 | 2.647
298.15 K, 101 kPa, x2 = 0.2719 | 2.679
298.15 K, 101.3 kPa, x1 = 0.003 | 0.9421
298.15 K, 101.3 kPa, x1 = 0.006 | 0.994
298.15 K, 101.3 kPa, x1 = 0.009 | 1.047
298.15 K, 101.3 kPa, x1 = 0.012 | 1.1
298.15 K, 101.33 kPa, x1 = 0.0017 | 0.921
298.15 K, 101.33 kPa, x1 = 0.00297 | 0.941
298.15 K, 101.33 kPa, x1 = 0.00364 | 0.949
298.15 K, 101.33 kPa, x1 = 0.00491 | 0.97
298.15 K, 101.33 kPa, x1 = 0.00559 | 0.981
298.15 K, 101.33 kPa, x1 = 0.0081 | 1.021
298.15 K, 101.33 kPa, x1 = 0.00972 | 1.048
298.15 K, 101.33 kPa, x1 = 0.0124 | 1.096
298.15 K, 101.33 kPa, x1 = 0.0136 | 1.114
298.15 K, 101.33 kPa, x1 = 0.0151 | 1.141
298.15 K, 101.33 kPa, x1 = 0.0166 | 1.166
298.15 K, 101.33 kPa, x1 = 0.0179 | 1.185
303.15 K, 101 kPa, x1 = 0.005 | 0.842
303.15 K, 101 kPa, x1 = 0.01 | 0.883
303.15 K, 101 kPa, x1 = 0.015 | 0.93
303.15 K, 101.33 kPa, x1 = 0.013 | 0.968
303.15 K, 101.33 kPa, x2 = 0.095 | 2.236
303.15 K, 101.33 kPa, x2 = 0.2526 | 2.272
303.15 K, 101.33 kPa, x2 = 0.4385 | 2.42
308.15 K, 101 kPa, x1 = 0.005 | 0.758
308.15 K, 101 kPa, x1 = 0.01 | 0.794
308.15 K, 101 kPa, x1 = 0.015 | 0.841
308.15 K, 101 kPa, x2 = 0.0398 | 2.032
308.15 K, 101 kPa, x2 = 0.0784 | 2.022
308.15 K, 101 kPa, x2 = 0.1202 | 2.017
308.15 K, 101 kPa, x2 = 0.1424 | 2.016
308.15 K, 101 kPa, x2 = 0.163 | 2.017
308.15 K, 101 kPa, x2 = 0.1955 | 2.024
308.15 K, 101 kPa, x2 = 0.2265 | 2.027
313.15 K, 101 kPa, x1 = 0.005 | 0.682
313.15 K, 101 kPa, x1 = 0.01 | 0.712
313.15 K, 101 kPa, x1 = 0.015 | 0.746
318.15 K, 101 kPa, x1 = 0.005 | 0.62
318.15 K, 101 kPa, x1 = 0.01 | 0.638
318.15 K, 101 kPa, x1 = 0.015 | 0.662
318.15 K, 101 kPa, x2 = 0.0412 | 1.597
318.15 K, 101 kPa, x2 = 0.0733 | 1.588
318.15 K, 101 kPa, x2 = 0.1101 | 1.581
318.15 K, 101 kPa, x2 = 0.1458 | 1.576
318.15 K, 101 kPa, x2 = 0.1755 | 1.571
318.15 K, 101 kPa, x2 = 0.2129 | 1.578
323.15 K, 100 kPa, x1 = 0.02 | 0.668
323.15 K, 100 kPa, x1 = 0.5485 | 1.447
323.15 K, 101 kPa, x1 = 0.005 | 0.566
323.15 K, 101 kPa, x1 = 0.01 | 0.58
323.15 K, 101 kPa, x1 = 0.015 | 0.602

C[C@H](CCC(=O)[O-])[C@H]1CC[C@H]2[C@@H]3[C@H](O)C[C@@H]4C[C@H](O)CC[C@]4(C)[C@H]3C[C@H](O)[C@]12C.[Na+] + O
viscosity [mPa·s], 101 kPa
Settings | x1 = 4.223e-05 | x1 = 8.385e-05 | x1 = 0.0001682 | x1 = 0.0003376 | x1 = 0.0004225 | x1 = 0.0005082 | x1 = 0.0006801 | x1 = 0.0008535
293.15 K | – | – | – | – | – | – | 1.082 | 1.105
298.15 K | – | 0.8984 | – | 0.9231 | – | 0.9405 | 0.9598 | 0.9782
303.15 K | 0.801 | 0.8044 | 0.8115 | 0.8262 | 0.8337 | – | 0.8579 | 0.875
308.15 K | – | 0.7264 | 0.7329 | 0.7454 | 0.7527 | 0.7593 | 0.774 | 0.7887
313.15 K | – | – | – | 0.6763 | 0.6826 | – | 0.7016 | 0.7154

NC(N)=S + O
viscosity [mPa·s], 100 kPa
Settings | 293.15 K | 298.15 K | 303.15 K | 308.15 K | 313.15 K
x1 = 0.00045 | 1.01 | 0.907 | 0.817 | 0.735 | 0.668
x1 = 0.0009 | 1.019 | 0.916 | 0.823 | 0.747 | 0.677
x1 = 0.0013 | 1.029 | 0.935 | 0.847 | 0.763 | 0.702
